Test results: ChEMBL document CHEMBL5226375, “Synthesis and Comprehensive in Vivo Activity Profiling of Olean-12-en-28-ol, 3β-Pentacosanoate in Experimental Autoimmune Encephalomyelitis: A Natural Remyelinating and Anti-Inflammatory Agent” (J Nat Prod, 2023)
Activity calls are given as the source filed them. No cut-off for these calls is given here.

Assays:
Mus musculus [1] = assay: Anti-inflammatory activity against MOG35-55-induced experimental autoimmune encephalomyelitis C57BL/6 mouse model assessed as reduction in serum chemokines level by measuring reduction in FASL level at 600 mg/kg/day, ig for 14 days starting from 12th day of immunization by ELISA; assay type: functional, organism-based; conditions: time 14.0 day
Mus musculus [2] = assay: Anti-inflammatory activity against MOG35-55-induced experimental autoimmune encephalomyelitis C57BL/6 mouse model assessed as fold change in GFAP gene expression in brain at 300 mg/kg/day, ig for 14 days starting from 12th day of immunization by RT-qPCR analysis relative to control; assay type: functional; conditions: time 14 day
Mus musculus [3] = assay: Anti-inflammatory activity against MOG35-55-induced experimental autoimmune encephalomyelitis C57BL/6 mouse model assessed as fold change in TGFB1 gene expression in brain at 600 mg/kg/day, ig for 14 days starting from 12th day of immunization by RT-qPCR analysis relative to control; assay type: functional; conditions: time 14 day
Mus musculus [4] = assay: Anti-inflammatory activity against MOG35-55-induced experimental autoimmune encephalomyelitis C57BL/6 mouse model assessed as methylation of CpG sites of IL18 gene promoter in brain at 600 mg/kg, ig for 14 days starting from 12th day of immunization by PCR analysis (reference value: 29.2 +/-8%); assay type: functional; conditions: time 14 day
[5] = Toxicity in C57BL/6 mouse assessed as serum LDH activity at 600 mg/kg/day, ig for 14 days by colorimetric analysis (reference value: 5.96 +/-1.08 U/ml); assay type: organism-based; conditions: in vivo, po, 336 h, time 14 day
Mus musculus [6] = assay: Anti-inflammatory activity against MOG35-55-induced experimental autoimmune encephalomyelitis C57BL/6 mouse model assessed as upregulation of MBP protein expression in brain at 300 to 600 mg/kg/day, ig for 14 days starting from 12th day of immunization by western blot analysis relative to control; assay type: functional; conditions: dose 300-600 mg/kg/day, time 14 day
Mus musculus [7] = assay: Anti-inflammatory activity against MOG35-55-induced experimental autoimmune encephalomyelitis C57BL/6 mouse model assessed as increase in brain IL-10 level at 600 mg/kg/day, ig for 14 days starting from 12th day of immunization by ELISA; assay type: functional, organism-based; conditions: time 14.0 day
Mus musculus [8] = assay: Anti-inflammatory activity against MOG35-55-induced experimental autoimmune encephalomyelitis C57BL/6 mouse model assessed as reduction in serum chemokines level by measuring reduction in IL-3 level at 600 mg/kg/day, ig for 14 days starting from 12th day of immunization by ELISA; assay type: functional, organism-based; conditions: time 14.0 day
Mus musculus [9] = assay: Anti-inflammatory activity against MOG35-55-induced experimental autoimmune encephalomyelitis C57BL/6 mouse model assessed as fold change in BCL2 gene expression in brain at 300 mg/kg/day, ig for 14 days starting from 12th day of immunization by RT-qPCR analysis relative to control; assay type: functional; conditions: time 14 day
Mus musculus [10] = assay: Anti-inflammatory activity against MOG35-55-induced experimental autoimmune encephalomyelitis C57BL/6 mouse model assessed as fold change in MBP gene expression in brain at 300 mg/kg/day, ig for 14 days starting from 12th day of immunization by RT-qPCR analysis relative to control; assay type: functional; conditions: time 14 day
Mus musculus [11] = assay: Anti-inflammatory activity against MOG35-55-induced experimental autoimmune encephalomyelitis C57BL/6 mouse model assessed as reduction in serum Th1 cytokine level by measuring reduction in IL-2 level at 600 mg/kg/day, ig for 14 days starting from 12th day of immunization by ELISA; assay type: functional, organism-based; conditions: time 14.0 day
Mus musculus [12] = assay: Anti-inflammatory activity against MOG35-55-induced experimental autoimmune encephalomyelitis C57BL/6 mouse model assessed as methylation of CpG sites of […] gene promoter in brain at 600 mg/kg, ig for 14 days starting from 12th day of immunization by PCR analysis (reference value: 45 +/-7%); assay type: functional; conditions: time 14 day
Mus musculus [13] = assay: Anti-inflammatory activity against MOG35-55-induced experimental autoimmune encephalomyelitis C57BL/6 mouse model assessed as methylation of CpG sites of CXCL14 gene promoter in brain at 600 mg/kg, ig for 14 days starting from 12th day of immunization by PCR analysis (reference value: 46.5 +/-6%); assay type: functional; conditions: time 14 day
Mus musculus [14] = assay: Anti-inflammatory activity against MOG35-55-induced experimental autoimmune encephalomyelitis C57BL/6 mouse model assessed as fold change in MMP9 gene expression in brain at 0.3 mg/kg/day, ig for 14 days starting from 12th day of immunization by RT-qPCR analysis relative to control; assay type: functional; conditions: time 14 day
Mus musculus [15] = assay: Anti-inflammatory activity against MOG35-55-induced experimental autoimmune encephalomyelitis C57BL/6 mouse model assessed as fold change in CXCL10 gene expression in brain at 0.15 mg/kg/day, ig for 14 days starting from 12th day of immunization by RT-qPCR analysis relative to control; assay type: functional; conditions: time 14 day
Mus musculus [16] = assay: Anti-inflammatory activity against MOG35-55-induced experimental autoimmune encephalomyelitis C57BL/6 mouse model assessed as fold change in GFAP gene expression in brain at 0.15 mg/kg/day, ig for 14 days starting from 12th day of immunization by RT-qPCR analysis relative to control; assay type: functional; conditions: time 14 day
Mus musculus [17] = assay: Anti-inflammatory activity against MOG35-55-induced experimental autoimmune encephalomyelitis C57BL/6 mouse model assessed as fold change in CD4 gene expression in brain at 0.3 mg/kg/day, ig for 14 days starting from 12th day of immunization by RT-qPCR analysis relative to control; assay type: functional; conditions: time 14 day
Mus musculus [18] = assay: Anti-inflammatory activity against MOG35-55-induced experimental autoimmune encephalomyelitis C57BL/6 mouse model assessed as reduction in serum monokines level by measuring reduction in IL-1B level at 0.3 mg/kg/day, ig for 14 days starting from 12th day of immunization by ELISA; assay type: functional, organism-based; conditions: time 14.0 day
Mus musculus [19] = assay: Anti-inflammatory activity against MOG35-55-induced experimental autoimmune encephalomyelitis C57BL/6 mouse model assessed as reduction in serum chemokines level by measuring reduction in CCL5 level at 0.3 mg/kg/day, ig for 14 days starting from 12th day of immunization by ELISA; assay type: functional, organism-based; conditions: time 14.0 day
Mus musculus [20] = assay: Anti-inflammatory activity against MOG35-55-induced experimental autoimmune encephalomyelitis C57BL/6 mouse model assessed as fold change in YWHAH gene expression in brain at 0.3 mg/kg/day, ig for 14 days starting from 12th day of immunization by RT-qPCR analysis relative to control; assay type: functional; conditions: time 14 day
Mus musculus [21] = assay: Anti-inflammatory activity against MOG35-55-induced experimental autoimmune encephalomyelitis C57BL/6 mouse model assessed as fold change in NFKB gene expression in brain at 0.3 mg/kg/day, ig for 14 days starting from 12th day of immunization by RT-qPCR analysis relative to control; assay type: functional; conditions: time 14 day
Mus musculus [22] = assay: Anti-inflammatory activity against MOG35-55-induced experimental autoimmune encephalomyelitis C57BL/6 mouse model assessed as fold change in NFKB gene expression in brain at 0.15 mg/kg/day, ig for 14 days starting from 12th day of immunization by RT-qPCR analysis relative to control; assay type: functional; conditions: time 14 day
Mus musculus [23] = assay: Anti-inflammatory activity against MOG35-55-induced experimental autoimmune encephalomyelitis C57BL/6 mouse model assessed as fold change in BCL2 gene expression in brain at 0.15 mg/kg/day, ig for 14 days starting from 12th day of immunization by RT-qPCR analysis relative to control; assay type: functional; conditions: time 14 day

## CCCCCCCCCCCCCCCCCCCCCCCCC(=O)O[C@H]1CC[C@]2(C)[C@H]3CC=C4[C@@H]5CC(C)(C)CC[C@]5(CO)CC[C@@]4(C)[C@]3(C)CC[C@H]2C1(C)C
Mus musculus [1]
  Activity: Active
Mus musculus [2]
  fold change (FC): 1.17
Mus musculus [3]
  fold change (FC): 8.29
Mus musculus [4]
  Activity: 40.5%
[5]
  Activity: 5.37 U/ml
Mus musculus [6]
  fold change (FC): 2
Mus musculus [7]
  Activity: Active
Mus musculus [8]
  Activity: Active
Mus musculus [9]
  fold change (FC): 1.76
Mus musculus [10]
  fold change (FC): 1.01
Mus musculus [11]
  Activity: Active
Mus musculus [12]
  Activity: 44.7%
Mus musculus [13]
  Activity: 65.3%

## CCCCCCCCc1ccc(CCC(N)(CO)CO)cc1 [FINGOLIMOD]
Mus musculus [14]
  fold change (FC): 4.44
Mus musculus [15]
  fold change (FC): 5.21
Mus musculus [16]
  fold change (FC): 2.62
Mus musculus [17]
  fold change (FC): 2.12
Mus musculus [18]
  Activity: Active
Mus musculus [19]
  Activity: Active
Mus musculus [20]
  fold change (FC): -1.26
Mus musculus [21]
  fold change (FC): 1.98
Mus musculus [22]
  fold change (FC): 2.04
Mus musculus [23]
  fold change (FC): 2.24
